Laboratory results: US6906097B2, “8-azaprostaglandin analogs as agents for lowering intraocular pressure” (Allergan, Inc., priority 2002, dated 2005)

Biological target: T1, hEP4 (Homo sapiens, UniProt P35408)
T1 construct: expressed in transfected cells
Assay: Functional data, human recombinant EP4 receptor stable transfectants
Type: cell-based
Protocol: Human Recombinant EP1, EP2, EP3, EP4, FP, TP, IP and DP Receptors: Stable Transfectants
Plasmids encoding the human EP1, EP2, EP3, EP4, FP, TP, IP and DP receptors were prepared by cloning the respective coding sequences into the eukaryotic expression vector pCEP4 (Invitrogen). The pCEP4 vector contains an Epstein Barr virus (EBV) origin of replication, which permits episomal replication in primate cell lines expressing EBV nuclear antigen (EBNA-1). It also contains a hygromycin resistance gene that is used for eukaryotic selection. […] HEK-293 cells were grown in DMEM with 10% fetal bovine serum (FBS), 250 μg ml^−1 G418 (Life Technologies) and 200 μg ml^−1 gentamicin or penicillin/streptomycin.
For transfection, the cells were grown to 50-60% confluency on 10 cm plates. The plasmid pCEP4 incorporating cDNA inserts for the respective human prostanoid receptor (20 μg) was added to 500 μl of 250 mM CaCl2. […] After 30 min, 9 ml DMEM were added to the mixture. The DNA/DMEM/calcium phosphate mixture was then added to the cells, which had been previously rinsed with 10 ml PBS. The cells were then incubated for 5 hr at 37° C. in humidified 95% air/5% CO2. The calcium phosphate solution was then removed and the cells were treated with 10% glycerol in DMEM for 2 min. The glycerol solution was then replaced by DMEM with 10% FBS. The cells were incubated overnight and the medium was replaced by DMEM/10% FBS containing 250 μg ml^−1 G418 and penicillin/streptomycin. The following day hygromycin B was added to a final concentration of 200 μg ml^−1.
Ten days after transfection, hygromycin B resistant clones were individually selected and transferred to a separate well on a 24 well plate. At confluence each clone was transferred to one well of a 6 well plate, and then expanded in a 10 cm dish. Cells were maintained under continuous hygromycin selection until use.

T1 sequence (P35408 whole entry): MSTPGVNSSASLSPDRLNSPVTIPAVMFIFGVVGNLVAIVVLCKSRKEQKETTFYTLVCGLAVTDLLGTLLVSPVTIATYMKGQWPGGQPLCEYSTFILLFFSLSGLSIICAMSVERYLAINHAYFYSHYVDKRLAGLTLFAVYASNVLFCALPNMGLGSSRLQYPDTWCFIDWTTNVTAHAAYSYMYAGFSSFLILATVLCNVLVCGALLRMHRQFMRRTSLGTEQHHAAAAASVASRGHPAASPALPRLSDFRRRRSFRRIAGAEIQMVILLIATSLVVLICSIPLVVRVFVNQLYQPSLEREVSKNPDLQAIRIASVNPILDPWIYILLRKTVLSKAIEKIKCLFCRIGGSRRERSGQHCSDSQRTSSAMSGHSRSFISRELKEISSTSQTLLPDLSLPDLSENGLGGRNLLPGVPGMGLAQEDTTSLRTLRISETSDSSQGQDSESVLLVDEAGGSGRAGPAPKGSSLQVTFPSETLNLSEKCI

- EC50: 0.7 nM
SMILES: O=C(O)CCCCCCN1C(=O)CC[C@@H]1CCC(O)Cc1cccc(Cl)c1 (stereo partly drawn) [Example 1, 7-[2S-[3R-Hydroxy-4-(chloro-phenyl)-butyl]-5-oxo-pyrrolidin-1-yl]-heptanoic acid]
